Assays:
[1] = human, in vivo; cited from earlier work
[2] = test system: desynchronized blind persons; settings: oral; cited from earlier work
[3] = cited from earlier work
[4] = test system: intraocular pressure in glaucoma; settings: cited from earlier work
[5] = general statement; cited from earlier work
[6] = test system: mice; settings: cited from earlier work
[7] = clinical; format: in vivo, human
Protocol: (§1) Therapeutic blood levels from 20 pg/ml to 1,000 pg/ml can be obtained from administration rates in the range of […]. […] Therapeutic blood levels can be achieved within approximately 2 hours, and peak blood concentrations are achieved at about 4-6 hours when the system is worn for 4-6 hours. […] The system application is easily adapted for shorter or longer duration treatments, but generally 6 hours is the nominal duration for treatment of most insomnias.

[8] = test system: insomniacs; settings: oral; cited from earlier work
[9] = test system: breast cancer; settings: cited from earlier work
[10] = format: in vivo, human
Protocol: as §1

[11] = human, in vivo, topical or ocular

COc1ccc2[nH]cc(CCNC(C)=O)c2c1 [melatonin, N-acetyl-5-methoxytryptamine]
metabolic clearance [1]: approximately 1 liter per minute
terminal plasma elimination half-life [1]: approximately 45 minutes
volume of distribution [1]: approximately 40 liters
timing of sleep cycles [2]: Improved timing of sleep cycles
absorption through the gastrointestinal tract ([3]; in vivo, po): readily absorbed
inactivation by liver of absorbed melatonin on first-pass ([3]; oral): ≤ 99%
intraocular pressure [4]: lower intraocular pressure in glaucoma
toxicity [5]: relatively non-toxic
LD50 intraperitoneal ([6]; intraperitoneal): 1375 mg/kg
LD50 intravenous ([6]; intravenous): 180 mg/kg
desired and achievable system flux through the skin from a limited area [7]: 0,025-1.0
Tmax [7, 11]: 4 to 6 h
half-life [7, 11]: 1 to 2 h
time to achieve therapeutic blood levels ([7]; in vivo): ≤ 2 h
mood, drive, alertness, and reaction time the next day [8]: improved
time awake before sleep onset, sleep latency and number of awakenings [8]: reduced the time awake before sleep onset and diminished sleep latency and number of awakenings
inhibition of breast cancer [9]: inhibit breast cancer
skin flux through living human skin [10]: 0.05-10 mg/cm^2 /hr
